Data reported in patent US10076520B2, “Use of tyrosine kinase inhibitor in cancer treatment” (THE REGENTS OF THE UNIVERSITY OF COLORADO, A BODY CORPORATE, priority 2013, dated 2018).

What was measured:
PKCδ = experiment: Immunoblot of PKCδ tyrosine phosphorylation in ParC5 cells treated with hydrogen peroxide; assay type: cell-based, rat; conditions: ParC5 cells pre-treated 30 mins prior to hydrogen peroxide
ParC5 cells = experiment: Irradiation-induced apoptosis (caspase-3 activity) in ParC5 cells; assay type: cell-based, rat; conditions: parC5 cells pre-treated 30 mins prior to 10 Gy irradiation; harvested after 18 hrs; p<0.05
Description: Cells were harvested after an additional 18 hrs and casapase 3 activity were measured.

Structure (SMILES): Cc1ccc(NC(=O)c2ccc(CN3CCN(C)CC3)cc2)cc1Nc1nccc(-c2cccnc2)n1 [imatinib]
- phosphorylation of PKCδ at Y64, Y155 and Y311 (PKCδ): inhibited phosphorylation of PKCδ at Y155 only
- apoptosis (caspase 3 activity) (ParC5 cells): significant protection from apoptosis
